Experimental findings from ChEMBL document CHEMBL2380236, “Core refinement toward permeable β-secretase (BACE-1) inhibitors with low hERG activity” (J Med Chem, 2013) are described below.

A short description of data set [1]: physchem.
A short description of the next data set: in vitro. The settings on record: human, Caco-2, pH 7.4, Papp.
Data set [2] is described as follows: physchem. The source holds these as a separate data set.
Data set [3] in a line: in vivo. The settings on record: C57BL/6, mouse, plasma, iv.
A short description of data set [4]: in vivo. The settings on record: C57BL/6, mouse, brain and plasma, iv.
Data set [5] can be described thus: in vivo. The following applies: C57BL/6, mouse, brain and plasma, iv. The source holds these as a separate data set.
A short description of data set [6]: in vivo. The following applies: C57BL/6, mouse, brain, iv.
Data set [7] is described as follows: in vivo. The settings on record: C57BL/6, mouse, brain and plasma, po.
Data set [8] in a line: in vivo. The settings on record: C57BL/6, mouse, brain, po.
A short description of data set [9]: in vivo. The settings on record: C57BL/6, mouse, brain and plasma, po. The source holds these as a separate data set.
Data set [10] is described as follows: in vivo. The settings on record: C57BL/6, mouse, plasma, po.

As for `CC1(c2cccc(-c3cccnc3)c2)N=C(N)c2ccccc2O1` (stereo not given), in “physchem [1]”, the chromatographic logD came out at 1.8. In “in vitro”, this compound gave a Papp A→B at 10 µM of 17 ×10⁻⁶ cm/s. This compound showed a pKa in “physchem [2]” of 8.2.

In the data set “physchem [1]”, `CCC1(c2cccc(-c3cncnc3)c2)N=C(N)c2ccccc2O1` (stereo not given) registered a chromatographic logD of 1.8. The same compound returned a pKa in the data set “physchem [2]” of 8.4.

Compound `CC1(c2cccc(-c3cncnc3)c2)N=C(N)c2c(F)cccc2O1` (stereo not given) gave a chromatographic logD in “physchem [1]” of 1.6. The apical-to-basolateral permeability (Papp A→B) at 10 µM in the data set “in vitro” turned out to be 39 ×10⁻⁶ cm/s. The compound also had a pKa in “physchem [2]” of 6.9.

For `CC1(c2cccc(-c3cccnc3)c2)N=C(N)c2c(F)cccc2O1` (stereo not given), the chromatographic logD in “physchem [1]” turned out to be 2.3. In the data set “in vitro”, this compound had a Papp A→B at 10 µM of 23 ×10⁻⁶ cm/s. In addition, in “physchem [2]”, the pKa worked out at 7.

Compound `CC1(c2cccc(-c3cncnc3)c2)N=C(N)c2ccccc2S1` (stereo not given) displayed a chromatographic logD in the data set “physchem [1]” of 1.7. This compound also came in with a Papp A→B at 10 µM in the data set “in vitro” of 39 ×10⁻⁶ cm/s. In the data set “physchem [2]”, this compound had a pKa of 8.3.

In “physchem [1]”, `COc1cccc(-c2cccc(C3(C)N=C(N)CCO3)c2)c1` (stereo not given) displayed a chromatographic logD of 2.5. Also, in “in vitro”, the Papp A→B at 10 µM is 13 ×10⁻⁶ cm/s. Also, the pKa in “physchem [2]” amounted to 9.3.

On to `CC1(c2cccc(-c3cccc(Cl)c3)c2)N=C(N)CCO1` (stereo not given), for which the chromatographic logD in the data set “physchem [1]” amounted to 3.3. In “in vitro”, this compound displayed a Papp A→B at 10 µM of 2.1 ×10⁻⁶ cm/s. For the same compound, in the data set “physchem [2]”, the pKa turned out to be 9.3.

As for `CC1(c2cccc(-c3cncnc3)c2)N=C(N)CCS1` (stereo not given), the fraction unbound at […] in the data set “in vivo [3]” is 0.89; in “in vivo [6]”, 0.074. This compound also had a chromatographic logD in the data set “physchem [1]” of less than 0. This compound registered an apical-to-basolateral permeability (Papp A→B) at 10 µM in “in vitro” of 21 ×10⁻⁶ cm/s. The pKa in the data set “physchem [2]” stood at 9.1. This compound also registered a Kp uu at […] in “in vivo [4]” of 0.27. Moreover, in the data set “in vivo [5]”, the Kp at […] amounted to 1.4.

With `COc1cccc(-c2cccc(C3(C)N=C(N)CCS3)c2)c1` (stereo not given), the chromatographic logD in the data set “physchem [1]” was determined as 2.5. Moreover, the Papp A→B at 10 µM in “in vitro” was found to be 5.2 ×10⁻⁶ cm/s. In addition, the pKa in “physchem [2]” is 9.3.

Compound `COc1cccc(-c2cccc(C3(C)COCC(N)=N3)c2)c1` (stereo not given) displayed a chromatographic logD in the data set “physchem [1]” of 2.1. Moreover, the apparent permeability from apical to basolateral (Papp A→B) at 10 µM in the data set “in vitro” came to 20 ×10⁻⁶ cm/s. In addition, in “physchem [2]”, the pKa came out at 9.8.

In the data set “physchem [2]”, `COc1cccc(-c2cccc(C3(C)CSCC(N)=N3)c2)c1` (stereo not given) displayed a pKa of 10.5.

Compound `COc1cccc(-c2cccc(C3(C)CCSC(N)=N3)c2)c1` (stereo not given) had a chromatographic logD in the data set “physchem [1]” of 2.5. In the data set “in vitro”, this compound had a Papp A→B at 10 µM of 72 ×10⁻⁶ cm/s. The same compound yielded a pKa in “physchem [2]” of 7. Also, the Kp at […] in “in vivo [7]” was 8.9. Besides, the values for the free fraction (fraction unbound) at […] in “in vivo [8]” and in the data set “in vivo [10]” were 0.005 and 0.07, respectively. Moreover, the Kp uu at […] in “in vivo [9]” is 0.64.

Compound `COc1ccc(C2(c3cccc(-c4cncnc4)c3)N=C(N)c3nc(C)sc32)cc1` (stereo not given) gave a chromatographic logD in “physchem [1]” of 2. For the same compound, in “in vitro”, the Papp A→B at 10 µM was 18 ×10⁻⁶ cm/s. Further, the pKa in “physchem [2]” was 8. In the data set “in vivo [7]”, this compound showed a partition ratio (Kp) at […] of 0.2. Moreover, the fraction unbound at […] was 0.02 in the data set “in vivo [8]” and 0.1 in “in vivo [10]”. The same compound yielded a Kp uu at […] in “in vivo [9]” of 0.04.

Consider `COc1ccc(C2(c3cccc(-c4cncnc4)c3)N=C(N)n3nc(C)cc32)cc1` (stereo not given), for which the chromatographic logD in the data set “physchem [1]” came out at 2.3. The same compound yielded an apical-to-basolateral permeability (Papp A→B) at 10 µM in the data set “in vitro” of 30 ×10⁻⁶ cm/s. The same compound gave a pKa in the data set “physchem [2]” of 5.4.

`COc1cccc(-c2cccc(C3(C)N=C(N)CS3)c2)c1` (stereo not given) gave a chromatographic logD in the data set “physchem [1]” of 3.6. In “in vitro”, this compound came in with an apical-to-basolateral permeability (Papp A→B) at 10 µM of 15 ×10⁻⁶ cm/s. The same compound gave a pKa in the data set “physchem [2]” of 6.9.

With `COc1ccc(C2(c3cccc(-c4cccnc4)c3)N=C(N)CS2)cc1` (stereo not given), the fraction unbound at […] stood at 0.007 in the data set “in vivo [3]” and 0.01 in “in vivo [6]”. For the same compound, in the data set “physchem [1]”, the chromatographic logD is 2.9. This compound also yielded a Papp A→B at 10 µM in “in vitro” of 19 ×10⁻⁶ cm/s. For the same compound, in “physchem [2]”, the pKa turned out to be 6.2. This compound returned a Kp uu at […] in “in vivo [4]” of 1.3. Besides, the partition ratio (Kp) at […] in “in vivo [5]” amounted to 0.9.

Turning to `COc1cccc(-c2cccc(C3(c4ccncc4)N=C(N)CS3)c2)c1` (stereo not given), the pKa in “physchem [2]” was determined as 5.4.

On to `COc1cccc(-c2cccc(C3(C)N=C(N)CN3C(C)=O)c2)c1` (stereo not given), for which the chromatographic logD in “physchem [1]” is 1.4. Moreover, the Papp A→B at 10 µM in “in vitro” is 16 ×10⁻⁶ cm/s. Further, the pKa in “physchem [2]” came to 6.5.

Compound `COc1ccc(C2(c3cccc(-c4cncnc4)c3)CCC(N)=N2)cc1` (stereo not given) came in with a chromatographic logD in the data set “physchem [1]” of 0.9. The apical-to-basolateral permeability (Papp A→B) at 10 µM in the data set “in vitro” was less than 0.3 ×10⁻⁶ cm/s. For the same compound, the pKa in “physchem [2]” was determined as 10.

Compound `CC1(c2cccc(-c3cncnc3)c2)N=C(N)c2ccccc2O1` (stereo not given) returned a chromatographic logD in “physchem [1]” of 1.2. Also, the Papp A→B at 10 µM in the data set “in vitro” is 31 ×10⁻⁶ cm/s. The compound also displayed a pKa in “physchem [2]” of 8.1.

On to `C[C@]1(c2cccc(-c3cncc(F)c3)c2)N=C(N)[C@@H]2CCCCN21` (relative stereo), for which the chromatographic logD in the data set “physchem [1]” was found to be 1.5.

`C[C@]1(c2cccc(-c3cncc(F)c3)c2)N=C(N)[C@H]2CCCCN21` (relative stereo) registered a chromatographic logD in the data set “physchem [1]” of 2. Besides, the pKa in “physchem [2]” came to 9.2.

The compound `COc1ccc(C2(c3cccc(-c4cccnc4)c3)CC(OC)C(N)=N2)cc1` (stereo in doubt; form 4) showed a chromatographic logD in the data set “physchem [1]” of 1.8.
